Test results reported in patent US12173188B2, “Ultraviolet absorbing agent, ultraviolet absorbing composition, ultraviolet absorbing film, laminate, and novel compound” (FUJIFILM CORPORATION, priority 2019, dated 2024).

Tests used:
[1] = Light fastness of laminate, metal halide lamp irradiation; assay type: physicochemical; details: change in transmittance at 380 nm after 60 hours metal halide lamp, 90 mW/cm^2, 63° C., 50% RH
Procedure: First, the transmittance of the obtained laminate of the glass plate and the ultraviolet absorbing film at a wavelength of 380 nm was measured using a spectrophotometer (model number: UV 3150) manufactured by Shimadzu Corporation.
Next, using a super-accelerated weather fastness tester [product name: EYE SUPER UV Tester, IWASAKI ELECTRIC Co., Ltd.], the obtained laminate of the glass plate and the ultraviolet absorbing film was irradiated with light (about 290 nm […]) of a metal halide lamp for 60 hours under the conditions of an illuminance of 90 mW/cm^2 ([…]), a temperature of 63° C., and a relative humidity of 50%.
After light irradiation, the transmittance of the obtained laminate of the glass plate and the ultraviolet absorbing film at a wavelength of 380 nm was measured in the same manner as described above using a spectrophotometer (model number: UV 3150) manufactured by Shimadzu Corporation.
The width of change in transmittance at a wavelength of 380 nm before and after the light irradiation was calculated, and the light fastness was evaluated as “particularly good” in a case where the width of change was less than 5%, the light fastness was evaluated as “good” in a case where the width of change was 5% or more and less than 10%, and the light fastness was evaluated as “bad” in a case where the width of change was 10% or more.

[2] = Moist heat resistance test of laminate (60° C., 90% RH, 160 hours); assay type: physicochemical; details: for Haze after moist heating: after 160 hours at 60° C.; for Haze after moist heating / Moist heat resistance: 90% RH; for Moist heat resistance: change in transmittance at 380 nm after 160 hours at 60° C.
Procedure: The moist heat test was carried out with a constant temperature and humidity device (IG420, manufactured by Yamato Scientific Co., Ltd.) under the conditions of a temperature of 60° C. and a humidity of 90% RH. The transmittance at 380 nm after the lapse of 160 hours was measured by the above method. The width of change in transmittance at a wavelength of 380 nm before and after the moist heat resistance test was calculated, and the moist heat resistance was evaluated as “particularly good” in a case where the width of change was less than 5%, the moist heat resistance was evaluated as “good” in a case where the width of change was 5% or more and less than 10%, and the moist heat resistance was evaluated as “bad” in a case where the width of change was 10% or more.
The haze after the moist heat resistance test was measured by the same method as in (2. Initial haze) described above.

[3] = Solubility in distilled water at 25° C.; details: 24 hours standing
Procedure: The solubility of the specific ultraviolet absorbing agent in water in the present disclosure can be measured by the following method from the amount of the specific ultraviolet absorbing agent dissolved in 10 g of distilled water at 25° C.
After mixing 10 g of distilled water with 1 g of the specific ultraviolet absorbing agent, the resultant mixture is irradiated with ultrasonic waves at a liquid temperature of 25° C. for 15 minutes and then allowed to stand for 24 hours while the liquid temperature is maintained at 25° C. For ultrasonic irradiation, a desktop ultrasonic cleaner 1510, manufactured by Branson Ultrasonics, Emerson Japan, Ltd. is used.
After being allowed to stand for 24 hours, filtration is carried out through a membrane filter (0.1 μm mesh, manufactured by [sequence] Co., Ltd.). The unfiltered specific ultraviolet absorbing agent is collected, dried, and then weighed. The amount of the unfiltered specific ultraviolet absorbing agent is subtracted from 1 g of the specific ultraviolet absorbing agent to obtain an amount of the specific ultraviolet absorbing agent dissolved in water, and the solubility of the specific ultraviolet absorbing agent in water is calculated from that the obtained amount value.

[4] = Maximum absorption wavelength by spectrophotometer; assay type: physicochemical; details: H2O
Procedure: The maximum absorption wavelength of the ultraviolet absorbing agent can be measured, for example, using a spectrophotometer. Examples of the device include a spectrophotometer UV3600 and an ultraviolet-visible-near infrared spectrophotometer UV 3150, manufactured by Shimadzu Corporation. In the present disclosure, the maximum absorption wavelength of the ultraviolet absorbing agent is measured using a spectrophotometer UV3600.
The measurement is carried out at room temperature (25° C.), and the absorbance is measured using a spectrophotometer to obtain an absorption spectrum while air is referenced as a control as the measurement condition.
In a case where an absorbance at a wavelength in a predetermined wavelength range is measured, the maximum absorption wavelength, the transmittance, and the like can be calculated.

[5] = Molar absorption coefficient in pure water; assay type: physicochemical; details: 1.0 mg in 100 mL pure water, 1 cm cell, at maximum absorption wavelength; in L/(mol·cm) (unit assumed)
Procedure: After dissolving 1.0 mg of a sample in 100 mL of pure water, the absorbance of the aqueous solution was measured in a 1 cm cell using a spectrophotometer (model number: UV 3150) manufactured by Shimadzu Corporation. From the measurement results, the molar absorption coefficient was calculated from the value of the absorbance at the maximum absorption wavelength using the Lambert-Beer law.

[6] = 5.0 parts agent/45.0 parts PVA film
[7] = 2.0 parts agent/98.0 parts PVA film

## O=C(c1ccc(O)cc1O)c1ccc(O)cc1O [Compound H-1, reference compound]
[1]; [6]
  Light fastness: Bad (the width of change was 10% or more)
[2]; [6]
  Haze after moist heating: 6.1%
  Moist heat resistance: Bad (the width of change was 10% or more)

## O=S(=O)([O-])CCNc1nc(NCCS(=O)(=O)[O-])nc(Nc2ccc(C=Cc3ccc(Nc4nc(NCCS(=O)(=O)[O-])nc(NCCS(=O)(=O)[O-])n4)cc3S(=O)(=O)[O-])c(S(=O)(=O)[O-])c2)n1.[Na+].[Na+].[Na+].[Na+].[Na+].[Na+] [Compound H-3, reference compound]
[1]; [6]
  Light fastness: Bad (the width of change was 10% or more)
[2]; [6]
  Haze after moist heating: 9.5%
  Moist heat resistance: Bad (the width of change was 10% or more)

## CCCCN1C(=O)C(=C2Sc3c(OCCCCS(=O)(=O)[O-])c4c(c(OCCCCS(=O)(=O)[O-])c3S2)SC(=C2C(=O)N(CCCC)N(CCCC)C2=O)S4)C(=O)N1CCCC.[Na+].[Na+] [Compound H-4, reference compound]
[1]; [6]
  Light fastness: Good (the width of change was 5% or more and less than 10%)
[2]; [6]
  Haze after moist heating: 18%
  Moist heat resistance: Bad (the width of change was 10% or more)
[2]; in words, summary of Table 1
  haze after the moist heat resistance test: significantly increased

## CCCCC(CC)COc1ccc(OCC(CC)CCCC)c2c1SC(=C1C(=O)N(CCCC)N(CCCC)C1=O)S2 (centres unmarked) [Compound H-5, reference compound]
[1]; [6]
  Light fastness: Bad (the width of change was 10% or more)
[2]; [6]
  Haze after moist heating: 68%
  Moist heat resistance: Bad (the width of change was 10% or more)

## CC(C)(C)C(=O)C(C#N)=C1Sc2c(OCCCCS(=O)(=O)[O-])ccc(OCCCCS(=O)(=O)[O-])c2S1.[Na+].[Na+] [Compound M-1]
[3]
  Solubility (25° C.): 3.2 % by mass

## N#CC(C(=O)c1ccccc1)=C1Sc2c(OCCCS(=O)(=O)[O-])ccc(OCCCS(=O)(=O)[O-])c2S1.[Na+].[Na+] [Compound M-2]
[3]
  Solubility (25° C.): 2.9 % by mass

## N#CC(C#N)=C1Sc2c(OCCCCS(=O)(=O)[O-])ccc(OCCCCS(=O)(=O)[O-])c2S1.[Na+].[Na+] [Compound M-3]
[4]
  Maximum absorption wavelength: 372 nm
[5]
  Molar absorption coefficient: 28,100
[1]; [7]
  Light fastness: Particularly good (the width of change was less than 5%)
[1]; [6]
  Light fastness: Particularly good (the width of change was less than 5%)
[2]; [7]
  Haze after moist heating: 0.1%
  Moist heat resistance: Particularly good (the width of change was less than 5%)
[2]; [6]
  Haze after moist heating: 0.24%
  Moist heat resistance: Particularly good (the width of change was less than 5%)
[3]
  Solubility (25° C.): 3.1 % by mass

## CON=CC(C#N)=C1Sc2c(OCCCCS(=O)(=O)[O-])ccc(OCCCCS(=O)(=O)[O-])c2S1.[Na+].[Na+] [Compound M-5]
[4]
  Maximum absorption wavelength: 390 nm
[5]
  Molar absorption coefficient: 27,400
[1]; [6]
  Light fastness: Particularly good (the width of change was less than 5%)
[2]; [6]
  Haze after moist heating: 0.28%
  Moist heat resistance: Particularly good (the width of change was less than 5%)
[3]
  Solubility (25° C.): 3.1 % by mass

## N#CC(C#N)=C1Sc2c(OCCCCP(=O)(O)O)ccc(OCCCCP(=O)(O)O)c2S1 [Compound M-7]
[3]
  Solubility (25° C.): 2.0 % by mass

## N#CC(C#N)=C1Sc2c(OC(=O)CCC(=O)[O-])ccc(OC(=O)CCC(=O)[O-])c2S1.[Na+].[Na+] [Compound M-8]
[1]; [7]
  Light fastness: Particularly good (the width of change was less than 5%)
[1]; [6]
  Light fastness: Particularly good (the width of change was less than 5%)
[2]; [7]
  Haze after moist heating: 0.3%
  Moist heat resistance: Particularly good (the width of change was less than 5%)
[2]; [6]
  Haze after moist heating: 0.4%
  Moist heat resistance: Good (the width of change was 5% or more and less than 10%)
[3]
  Solubility (25° C.): 2.6 % by mass

## CCCCOc1ccc(OCCCC)c2c1SC(=C(C#N)C(=O)OCCCCS(=O)(=O)[O-])S2.[Na+] [Compound M-9]
[3]
  Solubility (25° C.): 2.1 % by mass

## CCCCOc1ccc(OCCCC)c2c1SC(=C(C#N)C(=O)OCCCCP(=O)(O)O)S2 [Compound M-10]
[3]
  Solubility (25° C.): 1.9 % by mass

## CCCCN1C(=O)C(=C2Sc3c(OCCCCS(=O)(=O)[O-])ccc(OCCCCS(=O)(=O)[O-])c3S2)C(=O)N1CCCC.[Na+].[Na+] [Compound M-11]
[4]
  Maximum absorption wavelength: 387 nm
[5]
  Molar absorption coefficient: 35,900
[1]; [7]
  Light fastness: Particularly good (the width of change was less than 5%)
[1]; [6]
  Light fastness: Particularly good (the width of change was less than 5%)
[2]; [7]
  Haze after moist heating: 0.1%
  Moist heat resistance: Particularly good (the width of change was less than 5%)
[2]; [6]
  Haze after moist heating: 0.26%
  Moist heat resistance: Particularly good (the width of change was less than 5%)

## CCCCN1C(=O)C(=C2Sc3c(OCCCS(=O)(=O)[O-])ccc(OCCCS(=O)(=O)[O-])c3S2)C(=O)N1CCCC.[Na+].[Na+] [Compound M-12]
[3]
  Solubility (25° C.): 3.6 % by mass

## O=C1C(=C2Sc3c(OCCCCS(=O)(=O)[O-])ccc(OCCCCS(=O)(=O)[O-])c3S2)C(=O)N(c2ccccc2)N1c1ccccc1.[Na+].[Na+] [Compound M-13]
[3]
  Solubility (25° C.): 3.3 % by mass

## CCCCOc1ccc(OCCCCS(=O)(=O)[O-])c2c1SC(=C1C(=O)N(CCCCS(=O)(=O)[O-])N(CCCCS(=O)(=O)[O-])C1=O)S2.[Na+].[Na+].[Na+] [Compound M-14]
[3]
  Solubility (25° C.): 3.7 % by mass

## CCCCC(CC)COc1ccc(OCC(CC)CCCC)c2c1SC(=C1C(=O)N(CCCCS(=O)(=O)[O-])N(CCCCS(=O)(=O)[O-])C1=O)S2.[Na+].[Na+] (centres unmarked) [Compound M-15]
[3]
  Solubility (25° C.): 2.9 % by mass

## O=C1C(=C2Sc3c(OCCS(=O)(=O)[O-])ccc(OCCS(=O)(=O)[O-])c3S2)C(=O)N(CCCS(=O)(=O)[O-])N1CCCS(=O)(=O)[O-].[Na+].[Na+].[Na+].[Na+] [Compound M-16]
[3]
  Solubility (25° C.): 2.9 % by mass

## CCCCN1C(=O)C(=C2Sc3c(OCCCCP(=O)(O)O)ccc(OCCCCP(=O)(O)O)c3S2)C(=O)N1CCCC [Compound M-17]
[3]
  Solubility (25° C.): 3.0 % by mass

## CCCCOc1ccc(OCCCC)c2c1SC(=C1C(=O)N(CCCCP(=O)(O)O)N(CCCCP(=O)(O)O)C1=O)S2 [Compound M-19]
[3]
  Solubility (25° C.): 3.0 % by mass

## CCCCOc1ccc(OCCCC)c2c1SC(=C1C(=O)N(CCCCC(=O)[O-])N(CCCCC(=O)[O-])C1=O)S2.[Na+].[Na+] [Compound M-20]
[3]
  Solubility (25° C.): 2.9 % by mass
